For nine molecules, IC50 and JAK2/JAK1 results are on record in patent publication US20220378791A1, “JAK1 INHIBITORS FOR THE TREATMENT OF MYELODYSPLASTIC SYNDROMES” (Incyte Corporation, priority 2014, published 2022).

Bounds are passed on as bounds.

For test [1], the target named is T1, human JAK1 (a.a. 837-1142) (Homo sapiens, UniProt P23458).
T1 construct: human JAK1 (a.a. 837-1142); His tag (N); made in house; host or cells: insect cells (baculovirus)
The test is described as follows: In vitro JAK kinase assay (HTRF), JAK1. Type of test: biochemical. The following applies: 1 mM ATP. On the procedure: Compounds herein were tested for inhibitory activity of JAK targets according to the following in vitro assay described in Park et al., Analytical Biochemistry 1999, 269, 94-104. The catalytic domains of human JAK1 (a.a. 837-1142), JAK2 (a.a. 828-1132) and JAK3 (a.a. 781-1124) with an N-terminal His tag were expressed using baculovirus in insect cells and purified. The catalytic activity of JAK1, JAK2 or JAK3 was assayed by measuring the phosphorylation of a biotinylated peptide. The phosphorylated peptide was detected by homogenous time resolved fluorescence (HTRF). […] Reactions were carried out at room temperature for 1 hour and then stopped with 20 μL 45 mM EDTA, 300 nM SA-APC, 6 nM Eu-Py20 in assay buffer (Perkin Elmer, Boston, Mass.). Binding to the Europium labeled antibody took place for 40 minutes and HTRF signal was measured on a Fusion plate reader (Perkin Elmer, Boston, Mass.).
(In TR-FRET formats the signal depends on donor and acceptor labels being close together.)

Test [2] addresses T2, human JAK2 (a.a. 828-1132) (Homo sapiens, UniProt O60674).
T2 construct: JAK2 (a.a. 828-1132); His tag (N); made in house; host or cells: insect cells (baculovirus)
Briefly: In vitro JAK kinase assay (HTRF), JAK2. It is filed as biochemical. The following applies: IC50 ratio, selectivity for JAK1 over JAK2, 1 mM ATP. On the procedure: Compounds herein were tested for inhibitory activity of JAK targets according to the following in vitro assay described in Park et al., Analytical Biochemistry 1999, 269, 94-104. The catalytic domains of human JAK1 (a.a. 837-1142), JAK2 (a.a. 828-1132) and JAK3 (a.a. 781-1124) with an N-terminal His tag were expressed using baculovirus in insect cells and purified. The catalytic activity of JAK1, JAK2 or JAK3 was assayed by measuring the phosphorylation of a biotinylated peptide. The phosphorylated peptide was detected by homogenous time resolved fluorescence (HTRF). […] Reactions were carried out at room temperature for 1 hour and then stopped with 20 μL 45 mM EDTA, 300 nM SA-APC, 6 nM Eu-Py20 in assay buffer (Perkin Elmer, Boston, Mass.). Binding to the Europium labeled antibody took place for 40 minutes and HTRF signal was measured on a Fusion plate reader (Perkin Elmer, Boston, Mass.). See Table 2 for data for compounds of the examples as tested by the assay of Example A at 1 mM ATP.

A word on the IC50: it is the concentration that inhibits the measured activity by half. A high value points to lower potency.

T2 sequence (O60674 828-1132): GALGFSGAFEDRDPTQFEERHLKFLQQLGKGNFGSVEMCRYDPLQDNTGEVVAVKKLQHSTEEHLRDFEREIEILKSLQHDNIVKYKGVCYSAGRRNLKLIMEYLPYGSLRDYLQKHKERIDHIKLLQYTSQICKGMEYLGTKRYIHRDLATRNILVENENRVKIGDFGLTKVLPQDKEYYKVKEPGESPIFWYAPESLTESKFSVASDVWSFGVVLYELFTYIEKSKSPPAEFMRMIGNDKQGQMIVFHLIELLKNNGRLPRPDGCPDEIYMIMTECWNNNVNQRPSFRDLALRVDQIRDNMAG
T1 sequence (P23458 849-1154): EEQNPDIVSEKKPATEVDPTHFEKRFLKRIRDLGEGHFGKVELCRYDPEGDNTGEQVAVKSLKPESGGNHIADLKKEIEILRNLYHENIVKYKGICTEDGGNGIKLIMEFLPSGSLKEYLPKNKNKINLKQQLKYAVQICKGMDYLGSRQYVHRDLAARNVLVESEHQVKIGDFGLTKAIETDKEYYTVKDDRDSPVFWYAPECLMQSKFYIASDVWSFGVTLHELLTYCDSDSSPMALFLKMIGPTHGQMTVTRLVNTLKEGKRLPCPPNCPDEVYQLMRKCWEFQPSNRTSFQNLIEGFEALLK

In test [1], `C[C@H](NC(=O)c1cc(F)c(N2CC(CC#N)(n3cc(-c4ncnc5[nH]ccc45)cn3)C2)cc1F)C(F)(F)F` [Example 14, 4-{3-(Cyanomethyl)-3-[4-(7H-pyrrolo[2,3-d]pyrimidin-4-yl)-1H-pyrazol-1-yl]azetidin-1-yl}-2,5-difluoro-N-[(1S)-2,2,2-trifluoro-1-methylethyl]benzamide] returned an IC50 of less than 10 nM. Also, the JAK2/JAK1 in test [2] was greater than 10.
The corresponding values for `CCNCc1cc(O[C@H]2CC[C@@H](N3CC(CC#N)(n4cc(-c5ncnc6[nH]ccc56)cn4)C3)CC2)nc(C(F)(F)F)c1` [Example 17, {1-(cis-4-{[4-[(ethylamino)methyl]-6-(trifluoromethyl)pyridin-2-yl]oxy}cyclohexyl)-3-[4-(7H-pyrrolo[2,3-d]pyrimidin-4-yl)-1H-pyrazol-1-yl]azetidin-3-yl}acetonitrile] are less than 10 nM and greater than 10.
The like results for `N#CCC(CN1CCN(C(=O)c2ccc(C#N)cc2F)CC1)n1cc(-c2ncnc3[nH]ccc23)cn1` (single isomer, unassigned) [Example 3, 4-[(4-{3-cyano-2-[4-(7H-pyrrolo[2,3-d]pyrimidin-4-yl)-1H-pyrazol-1-yl]propyl}piperazin-1-yl)carbonyl]-3-fluorobenzonitrile] were, in that order, less than 10 nM and greater than 10.
Consider `N#CCC(CN1CCN(C(=O)c2ccc(C#N)cc2F)CC1)n1ccc(-c2ncnc3[nH]ccc23)c1` (single isomer, unassigned) [Example 4, 4-[(4-{3-cyano-2-[3-(7H-pyrrolo[2,3-d]pyrimidin-4-yl)-1H-pyrrol-1-yl]propyl}piperazin-1-yl)carbonyl]-3-fluorobenzonitrile], for which, in test [1], the IC50 is less than 10 nM. Further, the JAK2/JAK1 in test [2] was greater than 10.
The corresponding values for `N#CC[C@]1(n2cc(-c3ncnc4[nH]ccc34)cn2)C[C@H](N2CCC(Oc3cc(CN4CC(O)C4)cc(C(F)(F)F)n3)CC2)C1` [Example 9, {trans-3-(4-{[4-[(3-hydroxyazetidin-1-yl)methyl]-6-(trifluoromethyl)pyridin-2-yl]oxy}piperidin-1-yl)-1-[4-(7H-pyrrolo[2,3-d]pyrimidin-4-yl)-1H-pyrazol-1-yl]cyclobutyl}acetonitrile] are less than 10 nM and greater than 10.
The corresponding values for `N#CC[C@]1(n2cc(-c3ncnc4[nH]ccc34)cn2)C[C@H](N2CCC(Oc3cc(CN4CCC[C@@H]4CO)cc(C(F)(F)F)n3)CC2)C1` [Example 11, {trans-3-(4-{[4-{[(2R)-2-(hydroxymethyl)pyrrolidin-1-yl]methyl}-6-(trifluoromethyl)pyridin-2-yl]oxy}piperidin-1-yl)-1-[4-(7H-pyrrolo[2,3-d]pyrimidin-4-yl)-1H-pyrazol-1-yl]cyclobutyl}acetonitrile] are less than 10 nM and greater than 10.
The molecule `N#CCC1(n2cc(-c3ncnc4[nH]ccc34)cn2)CN(C2CCN(C(=O)c3ccnc(C(F)(F)F)n3)CC2)C1` [Example 7, [3-[4-(7H-pyrrolo[2,3-d]pyrimidin-4-yl)-1H-pyrazol-1-yl]-1-(1-{[2-(trifluoromethyl)pyrimidin-4-yl]carbonyl}piperidin-4-yl)azetidin-3-yl]acetonitrile] showed an IC50 in test [1] of less than 10 nM. In addition, in test [2], the JAK2/JAK1 was greater than 10.
Molecule `N#CCC1(n2cc(-c3ncnc4[nH]ccc34)cn2)CN(C2CCN(C(=O)Nc3ccc(F)cc3C(F)(F)F)CC2)C1` [Example 6, 4-{3-(Cyanomethyl)-3-[4-(7H-pyrrolo[2,3-d]pyrimidin-4-yl)-1H-pyrazol-1-yl]azetidin-1-yl}-N-[4-fluoro-2-(trifluoromethyl)phenyl]piperidine-1-carboxamide] showed an IC50 in test [1] of less than 10 nM. Further, the JAK2/JAK1 in test [2] was greater than 10.
Turning to `N#CCC(C1CCN(c2cccc(Cl)n2)C1)n1cc(-c2ncnc3[nH]ccc23)cn1` (single isomer, unassigned) [Example 1, 3-[1-(6-chloropyridin-2-yl)pyrrolidin-3-yl]-3-[4-(7H-pyrrolo[2,3-d]pyrimidin-4-yl)-1H-pyrazol-1-yl]propanenitrile], the concentration for half-maximal inhibition (IC50) in test [1] was less than 10 nM. In addition, in test [2], the JAK2/JAK1 is greater than 10.
